The record followed here is ChEMBL document CHEMBL1148064, “Nepheliosyne A, new C47 acetylenic acid from the Okinawan marine sponge Xestospongia sp” (1994).

In one test the test system is L1210. Briefly: Cytotoxicity against mouse L1210 cells at 20 ug/cm'3. It is filed as functional.
The next test has as its system KB. In words: Cytotoxicity against human KB cells at 20 ug/cm'3. The class given is functional.

Turning to `C#CC(O)/C=C/C(O)C/C=C/CC(O)C#CC(O)C#CC(O)CCC/C=C\CCCCCCCCC(O)C(=O)CCCCCCCCCC(O)CC(O)C#CC(=O)O` (configuration not stated) [NEPHELIOSYNE A], the Activity in the test with L1210 was determined as 40%; in the test with KB it was 14%.
